# Experimental data as given in patent US7544664B2, “Sequences facilitating penetration of a substance of interest” (priority 2003, dated 2009).
# Key:
# [1] = literature (Tabosa Do Egito et al. 1996); cited from earlier work
# [2] = system: Candida parapsilosis (ATCC 22019); test: In vitro antifungal activity MIC80 (NCCLS M27A); details: MIC80, 48 hours, 37° C.; DPV15-AmB and AmB in μg/ml of AmB active product
compound,measurement,setting,value
"C[C@@H]1[C@H](O)[C@@H](C)/C=C/C=C/C=C/C=C/C=C/C=C/C=C/[C@H](O[C@@H]2O[C@H](C)[C@@H](O)[C@H](N)[C@@H]2O)C[C@@H]2O[C@](O)(C[C@@H](O)C[C@@H](O)[C@H](O)CC[C@@H](O)C[C@@H](O)CC(=O)O[C@H]1C)C[C@H](O)[C@H]2C(=O)O [AmB, Amphotericin B]",MTD,[1],1 mg/kg
same,MIC,[2],0.25 µg/mL
